Measured values: article PMC3648545, “A Phenylalanine to Serine Substitution within an O-Protein Mannosyltransferase Led to Strong Resistance to PMT-Inhibitors in Pichia pastoris” (PLoS ONE, 2013)

Biological target: T1, Pmt2p (PpPmt2p) (Komagataella phaffii, UniProt F2QTJ8)
T1 construct: gene PMT2; full-length native integral ER membrane protein in intact cells (chromosomal PMT2); Pmt1p-Pmt2p heterodimer, other PMTs also present; with Dolichyl-phosphate-mannose--protein mannosyltransferase 1
Assay: HPAEC-PAD of O-mannosylglycan site occupancy on mAb#[…] secreted by intact cells
Format: cell-based
Settings: fed-batch fermentation, PMTi-4 8 µM (Figure 4 legend; Discussion prints 8 mM); read-out is total O-mannosylation by all PMTs, not isolated Pmt2p; direct binding not shown

T1 sequence (F2QTJ8 entry or part of it): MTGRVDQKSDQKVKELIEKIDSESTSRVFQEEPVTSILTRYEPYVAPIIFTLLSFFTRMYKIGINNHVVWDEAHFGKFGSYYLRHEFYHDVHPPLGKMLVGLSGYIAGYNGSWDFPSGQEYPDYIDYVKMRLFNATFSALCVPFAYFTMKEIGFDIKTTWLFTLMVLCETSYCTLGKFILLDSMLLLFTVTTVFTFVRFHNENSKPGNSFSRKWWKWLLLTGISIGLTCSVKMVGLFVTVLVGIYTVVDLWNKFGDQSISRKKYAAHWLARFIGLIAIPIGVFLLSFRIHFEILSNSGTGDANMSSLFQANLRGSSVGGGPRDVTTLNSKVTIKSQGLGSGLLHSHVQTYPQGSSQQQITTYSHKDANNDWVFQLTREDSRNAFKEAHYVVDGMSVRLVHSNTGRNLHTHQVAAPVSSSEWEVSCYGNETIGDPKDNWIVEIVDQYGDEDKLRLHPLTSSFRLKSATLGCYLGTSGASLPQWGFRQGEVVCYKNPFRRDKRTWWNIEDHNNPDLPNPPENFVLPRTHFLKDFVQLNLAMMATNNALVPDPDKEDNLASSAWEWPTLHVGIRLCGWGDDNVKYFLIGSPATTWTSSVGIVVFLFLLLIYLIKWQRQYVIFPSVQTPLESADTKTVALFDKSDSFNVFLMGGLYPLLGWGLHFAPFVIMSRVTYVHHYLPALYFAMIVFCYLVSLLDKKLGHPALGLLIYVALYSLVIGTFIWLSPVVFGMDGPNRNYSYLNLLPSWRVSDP

In the case of PMTi-4, the O-mannosylglycan site occupancy is reported as 3.1 O-mannose chains per mAb H2L2 (56 without inhibitor).
